Residue numbers refer to the chain shown, from its start.
Experiments:
rM3 = rM3 (Rattus norvegicus, UniProt P08483); experiment: rat M3 functional assay; type: cell-based; settings: read-out: rM3 IC50, printed as rM1-rM4
rM4 = biological target: T1, rM4 (Rattus norvegicus, UniProt P08485); experiment: rat M4 functional assay; type: cell-based; settings: read-out: rM4 IC50, printed as rM1-rM4
T1 sequence (P08485 1-478): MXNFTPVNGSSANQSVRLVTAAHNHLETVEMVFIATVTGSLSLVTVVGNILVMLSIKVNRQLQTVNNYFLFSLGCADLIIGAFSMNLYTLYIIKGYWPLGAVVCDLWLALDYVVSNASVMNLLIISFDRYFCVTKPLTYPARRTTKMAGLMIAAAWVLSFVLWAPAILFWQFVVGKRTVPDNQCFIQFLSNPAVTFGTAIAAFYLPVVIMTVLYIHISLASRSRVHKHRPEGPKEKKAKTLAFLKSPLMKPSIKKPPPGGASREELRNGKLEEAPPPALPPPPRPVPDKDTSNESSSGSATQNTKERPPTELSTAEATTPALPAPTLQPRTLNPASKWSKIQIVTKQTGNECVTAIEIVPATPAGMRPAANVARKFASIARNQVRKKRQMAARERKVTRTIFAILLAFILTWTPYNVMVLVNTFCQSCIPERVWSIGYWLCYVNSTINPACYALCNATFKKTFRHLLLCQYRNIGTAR

[1] = tested on: 68 GPCRs, ion channels and transporters; experiment: Eurofins radioligand binding panel; settings: 10 μM, 68 targets
rM2 = biological target: T2, rM2 (Rattus norvegicus, UniProt P10980); experiment: rat M2 functional assay; type: cell-based; settings: read-out: rM2 IC50, printed as rM1-rM4
T2 sequence (P10980 1-466): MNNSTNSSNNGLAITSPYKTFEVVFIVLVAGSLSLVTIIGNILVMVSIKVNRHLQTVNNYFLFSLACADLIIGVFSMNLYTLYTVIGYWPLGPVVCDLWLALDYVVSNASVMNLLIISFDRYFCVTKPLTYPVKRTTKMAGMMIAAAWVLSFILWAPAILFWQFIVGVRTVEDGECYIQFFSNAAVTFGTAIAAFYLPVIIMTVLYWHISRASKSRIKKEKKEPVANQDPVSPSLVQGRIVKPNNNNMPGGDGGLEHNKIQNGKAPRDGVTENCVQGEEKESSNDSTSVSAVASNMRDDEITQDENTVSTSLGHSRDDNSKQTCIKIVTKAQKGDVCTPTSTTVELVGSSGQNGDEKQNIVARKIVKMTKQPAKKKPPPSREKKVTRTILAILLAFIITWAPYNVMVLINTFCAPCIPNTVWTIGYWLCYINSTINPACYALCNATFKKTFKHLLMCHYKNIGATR

rM1 = biological target: T3, rM1 (Rattus norvegicus, UniProt P08482); experiment: rat M1 functional assay; type: cell-based; settings: read-out: rM1 IC50, printed as rM1-rM4
T3 sequence (P08482 1-460): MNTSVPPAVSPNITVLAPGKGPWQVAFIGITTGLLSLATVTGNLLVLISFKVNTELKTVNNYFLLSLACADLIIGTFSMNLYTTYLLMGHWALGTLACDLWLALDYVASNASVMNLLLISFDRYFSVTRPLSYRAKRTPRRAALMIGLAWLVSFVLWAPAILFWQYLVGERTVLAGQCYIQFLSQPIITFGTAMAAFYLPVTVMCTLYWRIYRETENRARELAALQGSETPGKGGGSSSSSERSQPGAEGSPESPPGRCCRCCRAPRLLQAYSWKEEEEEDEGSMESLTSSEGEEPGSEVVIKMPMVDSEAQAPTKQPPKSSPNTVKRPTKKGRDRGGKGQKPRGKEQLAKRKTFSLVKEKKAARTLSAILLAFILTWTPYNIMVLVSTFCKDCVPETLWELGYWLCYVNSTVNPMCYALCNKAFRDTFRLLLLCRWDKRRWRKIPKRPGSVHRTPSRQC

human M1 = biological target: T4, human M1 (Homo sapiens, UniProt P11229); settings: read-out: hM1 IC50; printed as hM1-M4; cited from earlier work
T4 sequence (P11229 1-460): T3 sequence (P08482 1-460) with V5A, S254T, S309P, K320R, G337A, V413I

human M2 = biological target: T5, human M2 (Homo sapiens, UniProt P08172); settings: read-out: hM2 IC50; printed as hM1-M4; cited from earlier work
T5 sequence (P08172 1-466): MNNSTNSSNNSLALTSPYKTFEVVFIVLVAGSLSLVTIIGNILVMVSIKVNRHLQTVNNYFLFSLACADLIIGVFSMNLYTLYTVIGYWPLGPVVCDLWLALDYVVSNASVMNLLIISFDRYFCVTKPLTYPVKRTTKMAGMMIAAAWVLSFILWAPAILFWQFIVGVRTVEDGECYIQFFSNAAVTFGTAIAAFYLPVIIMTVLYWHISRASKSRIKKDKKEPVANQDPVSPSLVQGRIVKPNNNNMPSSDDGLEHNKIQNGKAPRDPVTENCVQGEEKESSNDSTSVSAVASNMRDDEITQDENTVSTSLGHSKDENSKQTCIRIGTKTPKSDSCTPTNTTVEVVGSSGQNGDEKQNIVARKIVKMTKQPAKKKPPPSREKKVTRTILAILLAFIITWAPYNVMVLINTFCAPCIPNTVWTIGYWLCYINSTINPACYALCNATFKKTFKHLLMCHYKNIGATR

human M4 = biological target: T6, human M4 (Homo sapiens, UniProt P08173); settings: read-out: hM4 IC50; printed as hM1-M4; cited from earlier work
T6 sequence (P08173 1-479): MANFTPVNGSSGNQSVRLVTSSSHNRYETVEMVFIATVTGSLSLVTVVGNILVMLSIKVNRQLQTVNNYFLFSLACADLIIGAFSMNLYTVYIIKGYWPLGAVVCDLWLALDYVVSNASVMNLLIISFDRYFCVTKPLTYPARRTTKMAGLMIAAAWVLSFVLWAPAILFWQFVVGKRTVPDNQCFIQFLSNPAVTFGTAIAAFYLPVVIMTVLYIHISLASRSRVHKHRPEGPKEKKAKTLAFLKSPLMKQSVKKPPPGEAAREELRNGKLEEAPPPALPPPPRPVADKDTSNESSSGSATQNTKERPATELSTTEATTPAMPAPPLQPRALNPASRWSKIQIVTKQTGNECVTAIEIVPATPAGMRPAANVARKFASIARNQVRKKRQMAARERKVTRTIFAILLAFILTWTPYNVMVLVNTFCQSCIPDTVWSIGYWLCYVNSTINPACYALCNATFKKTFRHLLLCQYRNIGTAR

human M3 = human M3 (Homo sapiens, UniProt P20309); settings: read-out: hM3 IC50; printed as hM1-M4; cited from earlier work
Chain of human M3 (P20309 whole entry): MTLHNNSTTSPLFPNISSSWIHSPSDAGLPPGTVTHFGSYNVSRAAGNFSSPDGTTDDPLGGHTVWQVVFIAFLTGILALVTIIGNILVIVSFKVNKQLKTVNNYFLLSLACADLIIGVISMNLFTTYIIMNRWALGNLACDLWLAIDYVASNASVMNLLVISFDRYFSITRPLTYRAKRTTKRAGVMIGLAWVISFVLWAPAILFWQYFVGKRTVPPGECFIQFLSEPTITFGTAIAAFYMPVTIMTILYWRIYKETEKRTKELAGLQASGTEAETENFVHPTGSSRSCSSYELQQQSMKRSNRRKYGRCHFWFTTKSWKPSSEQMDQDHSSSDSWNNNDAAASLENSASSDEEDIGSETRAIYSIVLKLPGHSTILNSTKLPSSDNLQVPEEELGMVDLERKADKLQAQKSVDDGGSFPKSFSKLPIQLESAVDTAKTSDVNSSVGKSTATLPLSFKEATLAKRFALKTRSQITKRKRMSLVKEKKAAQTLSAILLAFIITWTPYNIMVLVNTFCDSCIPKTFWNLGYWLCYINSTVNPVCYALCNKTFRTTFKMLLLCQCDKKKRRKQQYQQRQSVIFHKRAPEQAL

Chain of rM3 (P08483 whole entry): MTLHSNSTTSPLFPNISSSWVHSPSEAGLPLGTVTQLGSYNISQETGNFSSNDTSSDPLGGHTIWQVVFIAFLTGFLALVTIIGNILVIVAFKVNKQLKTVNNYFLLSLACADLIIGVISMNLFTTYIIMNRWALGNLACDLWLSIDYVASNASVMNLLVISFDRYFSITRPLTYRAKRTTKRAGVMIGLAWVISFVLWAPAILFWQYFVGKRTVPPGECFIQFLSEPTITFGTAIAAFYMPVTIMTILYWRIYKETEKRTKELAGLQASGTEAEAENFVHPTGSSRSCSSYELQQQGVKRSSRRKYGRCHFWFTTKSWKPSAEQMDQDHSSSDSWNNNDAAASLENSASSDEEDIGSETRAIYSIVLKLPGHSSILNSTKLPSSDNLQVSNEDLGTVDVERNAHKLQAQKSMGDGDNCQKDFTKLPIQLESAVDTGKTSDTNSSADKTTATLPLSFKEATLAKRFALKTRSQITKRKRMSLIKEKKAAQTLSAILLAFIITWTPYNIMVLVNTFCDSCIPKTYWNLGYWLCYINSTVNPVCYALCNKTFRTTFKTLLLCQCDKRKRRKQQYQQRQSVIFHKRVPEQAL

Row | IC50 (rM3) | IC50 (rM4) | inhibition in radioligand binding panel [1] | IC50 (rM2) | IC50 (rM1) | Structure (SMILES) | IC50 (human M1) | IC50 (human M2) | IC50 (human M4) | IC50 (human M3)
1 | > 30 µM | > 30 µM | ≤ 50% | > 30 µM | > 30 µM | CC(=O)c1cccc(OCc2cc(C(=O)N(C)[C@@H](C)c3ccccn3)no2)c1 [(S)-16] | – | – | – | –
2 | – | – | – | – | – | O=C(c1ccc(F)c(F)c1)N1CCN2C(=O)c3ccccc3[C@@]12c1ccc(Cl)cc1 [compound 5] | > 30 µM | > 30 µM | > 30 µM | > 30 µM

— PMC4116439 (ChemMedChem, 2014)
